# Data reported in publication PMC5708365, “Histone lysine methyltransferase structure activity relationships that allow for segregation of G9a inhibition and anti-Plasmodium activity” (MedChemComm, 2017).
# Molecular target: T1, G9a (Homo sapiens, UniProt Q96KQ7)
# T1 sequence (Q96KQ7 1-1210): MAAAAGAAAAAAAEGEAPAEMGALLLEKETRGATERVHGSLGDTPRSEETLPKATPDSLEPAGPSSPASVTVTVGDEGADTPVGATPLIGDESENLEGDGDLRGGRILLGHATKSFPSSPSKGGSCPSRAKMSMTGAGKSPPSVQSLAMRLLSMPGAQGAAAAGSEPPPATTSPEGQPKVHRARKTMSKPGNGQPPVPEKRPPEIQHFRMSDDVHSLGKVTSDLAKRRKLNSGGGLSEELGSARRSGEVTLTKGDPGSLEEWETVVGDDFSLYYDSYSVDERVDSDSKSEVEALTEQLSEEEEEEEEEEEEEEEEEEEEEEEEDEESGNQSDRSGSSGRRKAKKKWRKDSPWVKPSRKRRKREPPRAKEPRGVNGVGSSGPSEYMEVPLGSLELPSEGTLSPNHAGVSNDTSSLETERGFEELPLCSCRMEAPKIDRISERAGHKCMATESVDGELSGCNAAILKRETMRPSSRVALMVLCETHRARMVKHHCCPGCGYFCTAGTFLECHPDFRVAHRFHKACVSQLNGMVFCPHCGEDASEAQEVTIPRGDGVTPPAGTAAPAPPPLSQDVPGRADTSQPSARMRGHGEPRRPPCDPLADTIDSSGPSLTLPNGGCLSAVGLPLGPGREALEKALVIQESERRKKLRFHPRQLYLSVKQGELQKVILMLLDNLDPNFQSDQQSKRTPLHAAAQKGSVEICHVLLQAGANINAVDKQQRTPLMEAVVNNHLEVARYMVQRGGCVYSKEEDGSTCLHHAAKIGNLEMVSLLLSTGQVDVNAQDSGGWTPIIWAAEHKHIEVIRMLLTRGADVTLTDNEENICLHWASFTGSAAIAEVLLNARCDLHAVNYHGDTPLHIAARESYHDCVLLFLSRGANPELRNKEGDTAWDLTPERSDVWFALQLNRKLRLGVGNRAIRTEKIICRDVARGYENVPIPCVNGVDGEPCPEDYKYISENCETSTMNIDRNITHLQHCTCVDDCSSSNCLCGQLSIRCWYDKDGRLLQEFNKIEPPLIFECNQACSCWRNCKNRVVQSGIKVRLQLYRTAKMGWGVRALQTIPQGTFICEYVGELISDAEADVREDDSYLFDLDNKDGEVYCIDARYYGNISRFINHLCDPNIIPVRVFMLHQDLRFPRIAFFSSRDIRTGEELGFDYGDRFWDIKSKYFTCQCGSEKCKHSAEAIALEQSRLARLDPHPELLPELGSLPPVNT
# Conditions: SPA, 5 nM G9a, H3 1-25 peptide 0.8 μM, 3H-SAM 8 μM
row,G9a IC50,Compound
1,inactive against G9a,COc1cc2nc(N3CC(C)CC(C)C3)nc(NC3CCN(Cc4ccccc4)CC3)c2cc1OC (centres unmarked) [compound 14]
2,virtually no G9a inhibition,COc1cc2c(NC3CCN(Cc4ccccc4)CC3)nc(N3CCN(C)CC3)nc2cc1OCc1ccccc1 [compound 61]
3,virtually no G9a inhibition,COc1cc2c(NC3CCN(Cc4ccccc4)CC3)nc(N3CCCCC3)nc2cc1OCc1ccccc1 [compound 62]

row,Compound,G9a IC50
1,COc1cc2c(NC3CCN(C)CC3)nc(N3CCCN(C)CC3)nc2cc1OCc1ccccc1 [compound 60],complete loss of G9a activity

# Same assay, conditions: read-out: G9a IC50; SPA, 5 nM G9a, H3 1-25 peptide 0.8 μM, 3H-SAM 8 μM
row,Compound,IC50 [µM]
1,COc1cc2nc(N3CCCCCC3)nc(NC3CCN(Cc4ccccc4)CC3)c2cc1OC [compound 9],0.332
2,COc1cc2nc(N3CCC(OC)CC3)nc(NC3CCN(Cc4ccccc4)CC3)c2cc1OC [compound 12],0.576
3,COc1cc2nc(N3CCC(c4ccccc4)CC3)nc(NC3CCN(Cc4ccccc4)CC3)c2cc1OC [compound 16],> 10
4,COc1cc2nc(N3CCN(C)CC3)nc(NC3CCN(Cc4cccc(C)c4)CC3)c2cc1OC [compound 18],0.116
5,COc1cc2nc(N3CCN(C)CC3)nc(NC3CCN(Cc4ccccc4C)CC3)c2cc1OC [compound 20],0.169
6,COc1cc2nc(N3CCN(C)CC3)nc(NC3CCN(Cc4ccc(F)cc4)CC3)c2cc1OC [compound 21],0.112
7,COc1cc2nc(N3CCN(C)CC3)nc(NC3CCN(Cc4cccc(F)c4)CC3)c2cc1OC [compound 22],0.132
8,COc1cc2nc(N3CCN(C)CC3)nc(NC3CCN(Cc4ccccc4F)CC3)c2cc1OC [compound 23],0.116
9,COc1cc2nc(N3CCCCC3)nc(NC3CCN(Cc4ccc(C)cc4)CC3)c2cc1OC [compound 26],0.69
10,COc1cc2nc(N3CCCCC3)nc(NC3CCN(Cc4ccccc4C)CC3)c2cc1OC [compound 27],~1
11,COc1cc2nc(N3CCCCC3)nc(NC3CCN(Cc4cccc(F)c4)CC3)c2cc1OC [compound 29],~1
12,COc1cc2nc(N3CCN(C)CC3)nc(NC3CCCN(Cc4ccccc4)C3)c2cc1OC (centres unmarked) [compound 30],~1
13,COc1cc2nc(N3CCCCC3)nc(NC3CCCN(Cc4ccccc4)C3)c2cc1OC (centres unmarked) [compound 31],~1
14,COc1cc2nc(N3CCN(c4ccccn4)CC3)nc(NC3CCN(Cc4ccccc4)C3)c2cc1OC (centres unmarked) [compound 34],~10
15,COc1cc2nc(N3CCN(c4ccccn4)CC3)nc(NC3CCN(C(=O)c4ccccc4)CC3)c2cc1OC [compound 35],> 10
16,COc1cc2nc(N3CCCCC3)nc(NC3CCN(C(=O)c4ccccc4)CC3)c2cc1OC [compound 36],> 10
17,COc1cc2nc(N3CCN(c4ccccn4)CC3)nc(NC3CCN(C)CC3)c2cc1OC [compound 41],> 1
18,COc1cc2nc(N3CCCN(C)CC3)nc(NC3CCN(CC4CCCCC4)CC3)c2cc1OC [compound 44],0.01

row,Compound,IC50 [µM]
1,COc1cc2nc(N3CCN(C)CC3)nc(NC3CCN(CC4CCCCC4)CC3)c2cc1OC [compound 45],0.025
2,COc1cc2nc(N3CCCN(C)CC3)nc(NC3CCN(C4CCCCC4)CC3)c2cc1OC [compound 48],0.055
3,COc1cc2nc(N3CCN(C)CC3)nc(NC3CCN(C(C)C)CC3)c2cc1OC [compound 52],0.123
4,COc1cc2nc(N3CCCCC3)nc(Nc3ccccc3)c2cc1OC [compound 58],> 10
5,COc1cc2nc(N3CC(C)CC(C)C3)nc(Nc3ccccc3)c2cc1OC (centres unmarked) [compound 59],> 10
6,COc1cc2c(NC3CCN(C)CC3)nc(N3CCCN(C)CC3)nc2cc1OCc1ccccc1 [compound 60],> 1
7,COc1cc2c(NC3CCN(Cc4ccccc4)CC3)nc(N3CCN(C)CC3)nc2cc1OCc1ccccc1 [compound 61],~10
8,COc1cc2c(NC3CCN(Cc4ccccc4)CC3)nc(N3CCCCC3)nc2cc1OCc1ccccc1 [compound 62],> 50
9,COc1cc2c(NC3CCN(C(C)C)CC3)nc(N3CCN(C)CC3)nc2cc1OCCCN1CCCCC1 [compound 68],0.004
10,COc1cc2c(NC3CCN(Cc4ccccc4)CC3)nc(N3CCCN(C)CC3)nc2cc1OCCCN(C)C [compound 69],< 0.003
11,CCCCCCCCOc1cc2nc(N3CCCN(C)CC3)nc(NC3CCN(Cc4ccccc4)CC3)c2cc1OC [compound 73],0.211
12,CCCCCCOc1cc2nc(N3CCCN(C)CC3)nc(NC3CCN(Cc4ccccc4)CC3)c2cc1OC [compound 74],0.039
13,CCCCCCOc1cc2nc(N3CCN(C)CC3)nc(NC3CCN(Cc4ccccc4)CC3)c2cc1OC [compound 77],0.114
14,CCCCCOc1cc2nc(N3CCN(C)CC3)nc(NC3CCN(Cc4ccccc4)CC3)c2cc1OC [compound 78],~1
15,CCCCOc1cc2nc(N3CCN(C)CC3)nc(NC3CCN(Cc4ccccc4)CC3)c2cc1OC [compound 79],0.683
16,COc1cc2c(NC3CCN(Cc4ccccc4)CC3)nc(N3CCN(C)CC3)nc2cc1OCCC(C)C [compound 81],5.34
17,COc1cc2c(NC3CCN(Cc4ccccc4)CC3)nc(N3CCN(C)CC3)nc2cc1OCCCSC [compound 83],0.223
18,COc1cc2c(NC3CCN(Cc4ccccc4)CC3)nc(N3CCN(C)CC3)nc2cc1OCCCCSC [compound 84],0.575

# The next lines start with the values.
row,IC50 [µM],Compound
1,1.33,COc1cc2nc(N3CCC(C)CC3)nc(NC3CCN(Cc4ccccc4)CC3)c2cc1OC [compound 11]
2,0.506,COc1cc2nc(N3CCC(N(C)C)CC3)nc(NC3CCN(Cc4ccccc4)CC3)c2cc1OC [compound 13]
3,~10,COc1cc2nc(N3CC(C)CC(C)C3)nc(NC3CCN(Cc4ccccc4)CC3)c2cc1OC (centres unmarked) [compound 14]
4,0.078,COc1cc2nc(N3CCN(C)CC3)nc(NC3CCN(Cc4ccc(C)cc4)CC3)c2cc1OC [compound 19]
5,0.128,COc1cccc(CN2CCC(Nc3nc(N4CCN(C)CC4)nc4cc(OC)c(OC)cc34)CC2)c1 [compound 24]
6,0.869,COc1cc2nc(N3CCCCC3)nc(NC3CCN(Cc4cccc(C)c4)CC3)c2cc1OC [compound 25]
7,1.21,COc1cc2nc(N3CCCCC3)nc(NC3CCN(Cc4ccc(F)cc4)CC3)c2cc1OC [compound 28]
8,0.83,COc1cc2nc(N3CCCCC3)nc(NC3CCN(Cc4ccccc4)C3)c2cc1OC (centres unmarked) [compound 33]
9,> 1,COc1cc2nc(N3CC(C)CC(C)C3)nc(NC3CCN(C(C)=O)CC3)c2cc1OC (centres unmarked) [compound 37]
10,0.295,COc1cc2nc(N3CCCCC3)nc(NC3CCN(CC4CCCCC4)CC3)c2cc1OC [compound 46]
11,0.055,COc1cc2nc(N3CCCN(C)CC3)nc(NC3CCN(C(C)C)CC3)c2cc1OC [compound 51]
12,0.319,COc1cc2nc(N3CCCCC3)nc(NC3CCN(C(C)C)CC3)c2cc1OC [compound 54]
13,6.44,COc1cc2nc(N3CCN(C)CC3)nc(NC3CCCCC3)c2cc1OC [compound 55]
14,> 10,COc1cc2nc(N3CCN(C)CC3)nc(Nc3ccccc3)c2cc1OC [compound 57]
15,0.008,COc1cc2c(NC3CCN(Cc4ccccc4)CC3)nc(N3CCN(C)CC3)nc2cc1OCCCN(C)C [compound 70]
16,0.039,CCCCCCOc1cc2nc(NCCCN(C)C)nc(NC3CCN(Cc4ccccc4)CC3)c2cc1OC [compound 75]
17,1.02,CCCCCCCCOc1cc2nc(N3CCN(C)CC3)nc(NC3CCN(Cc4ccccc4)CC3)c2cc1OC [compound 76]
18,0.843,CCCCOc1cc2nc(N3CCN(C)CC3)nc(NC3CCN(C(C)C)CC3)c2cc1OC [compound 80]
19,2.03,COc1cc2c(NC3CCN(C(C)C)CC3)nc(N3CCN(C)CC3)nc2cc1OCCC(C)C [compound 82]
